Measured values taken from PMC4736406 (Stem Cells International, 2016).
Structures can show the parent of a compound that is named as a salt.

Experiments:
[1] = plasma; no reference given; read-out: C max (maximum plasma concentration of the drug); cited from earlier work
[2] = system: hiPSC derived hepatocytes (hiPS-HEP);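 note: hiPS-HEP obtained from ChiPSC4 through definitive endoderm under serum- and feeder-free conditions in 96-well plates, fluorescence imaging, each concentration run in triplicate wells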
From the text: (§1) For hepatic differentiation, a serum- and feeder-free procedure recapitulating liver development was applied. First, ChiPSC4 was guided to differentiate into definitive endoderm using the Cellartis DE Diff Kit (Takara Bio Europe AB; Y30030), containing complete media and coating solution for differentiation of hPSC to DE cells in 2D culture. On day 7 of differentiation, the DE cells were enzymatically dissociated and reseeded into fibronectin coated 96-well plates. […] Wells of 96-well plates were coated by adding fibronectin solution 0.15 mL per cm^2 to the wells and let to incubate for >60 min at RT. […] Next, the cell suspension was centrifuged for 5 min at 300 g at RT, the supernatant was removed, and the cell pellet was resuspended in warm Hepatocyte Thawing and Seeding medium (Cellartis Hepatocyte Diff Kit; Takara Bio Europe AB; Y30050). Prior to seeding of cells, excess coating was removed and 150 K DE cells/cm^2 were seeded in the 96-well plates. On days 9 and 11 (counted from the start of ChiPSC4 differentiation), medium was changed using Hepatocyte Progenitor Medium (Cellartis Hepatocyte Diff Kit).
(§2) The cells were treated for 48 h with compounds at varying concentrations (half log dilution from the top concentration). […] The stock solutions were prepared in DMSO or water and were diluted in culture medium to obtain the final concentration. Each concentration was assayed in triplicate wells. Vehicle control wells were included and the final DMSO concentration in the medium never exceeded 0.5% (v/v). Each batch had two plates each for fixed and live assays.
(§3) LipidTOX Green neutral lipids and LipidTox Red phospholipidosis were used for identifying neutral lipid and phospholipid formation within the cells. MMP changes (Δψm) within the cell were measured using MitoTracker orange. Carboxy-H2DCFDA (6-carboxy-2′,7′-dichlorodihydrofluorescein diacetate) an acetylated fluorescent was used for measuring ROS. And finally, TOTO-3 was used for assessing PMP.
(§4) The fluorescence probes were grouped into two sets according to their optical compatibility and requirement of fixed or live material. […] The fluorescent probes for neutral lipids and phospholipids required the cells to be fixed and were assigned to the fixed assay. The probes MitoTracker orange, carboxy-H2DCFDA, and TOTO-3 were assigned to the live assay.
(§5) Following compound incubation, probes were administered to the cultures of the live assay. […] After incubation for 45 min at optimal cell culture conditions, the cells were changed to phenol red (PR) free medium for live cell imaging. For fixed assay, LipidTox Red probe was added with the compounds, and after 48 h the cells were fixed in 4% PFA supplemented with 1X Hoechst stain for 30 min at room temperature. Subsequently, cells were washed with PBS^+/+ and 1X LipidTOX Green stain diluted in PBS^+/+ was incubated with the cells for 30 min at room temperature. The plates were imaged without removing the buffer with probe.
(§6) The cells were imaged using an Olympus ScanR system. Prior to image acquisition, the heating system and CO2 gas flow were started to ensure optimal conditions in the ScanR chamber for live cell analysis. The incubator was set to 37°C with 5% CO2 and relative humidity of 90%. […] 20X long distance objective with NA 0.45 was used to image distinct fluorescence channels. In order to cover the entire well and also to capture maximum cell events sixteen fields per well (4 × 4 tile grid spread equally) were imaged. The channel exposure time for LipidTOX Green, LipidTOX Red, MitoTracker orange, and carboxy-H2DCFHDA were set based on the fluorescence of the negative control wells and were set constant within each plate. Exposure time for Hoechst and TOTO-3 was set in the range of 1–10 ms depending on cellular fluorescence intensity.
(§7) The acquired images were analyzed using ScanR analysis program from Olympus.

[3] = system: hiPSC derived hepatocytes (hiPS-HEP); assay: Image based high content analysis (HCA), fixed and live assays, in hiPSC derived hepatocytes;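 note: hiPS-HEP obtained from ChiPSC4 through definitive endoderm under serum- and feeder-free conditions in 96-well plates, fluorescence imaging, each concentration run in triplicate wells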
From the text: as §1, §2, §3, §4, §5, §6, §7

HepG2 cells = assay: Image based high content analysis (HCA), fixed and live assays, in HepG2
Experimental: Briefly, the cells were grown in DMEM supplemented with 10% heat inactivated FBS, 1% penicillin-streptomycin (PEST), 1% sodium pyruvate, and 1% nonessential amino acids. Cells were passaged at 1 : 8 or 1 : 6 every 3-4 days when they reach 75–80% confluence. Seeding density was optimized for HCA application to ensure that the cells were in a monolayer (5000 cells per well in 96-well plates) for precise imaging. The cells were grown for 48 h to attach and stabilize. The experiments performed with HepG2 cells were designed to ensure that each assay was performed with cells in a similar growth phase.
Each concentration was assayed in triplicate wells. […] The experimental process is illustrated in Figure 2.
And finally, TOTO-3 was used for assessing PMP.
The cells were imaged using an Olympus ScanR system.
All other fluorescence signals were considered as subobjects.

[4] = hiPSC derived hepatocytes, at concentrations higher than 100 μM, similar to control up to 100 μM
[5] = HepG2, fixed assay, 48 h, p<0.05 vs control
[6] = HepG2, fixed, at 100 µM (Amiodarone HCL at […])
[7] = HepG2, live assay, 48 h, p<0.05 vs control
[8] = HepG2, live, at 100 µM (Amiodarone HCL at […])

Q: With CN(C)[C@@H]1C(O)=C(C(N)=O)C(=O)[C@@]2(O)C(O)=C3C(=O)c4c(O)cccc4[C@@](C)(O)[C@H]3C[C@@H]12 [Tetracycline, tetracycline hydrochloride] as the compound, how does the Cmax [1] read?
A: 14.2 µM

Q: And the “Cytotoxic effects” value [2]?
A: minimal cytotoxic effects

Q: And the “Phospholipid parameters / accumulation of phospholipids” value [2]?
A: not detected

Q: And the “Significant changes in PMP” value [2]?
A: did not generate any significant changes

Q: And the “Significant changes on MMP” value [2]?
A: not detected

Q: And the “Concentration at which increase in lipid accumulation / lipid droplets was observed” value ([2]; human, 48 h)?
A: 32 µM

Q: What about the “Concentration at which mitochondrial membrane potential (MMP) increased” value ([2]; human, 48 h) of the same compound?
A: 32 µM

Q: What about the “Concentration at which nuclear changes were evident (nuclear intensity and area)” value ([2]; human, 48 h) of the same compound?
A: 320 µM

Q: And the “Concentration at which oxidative stress increased” value ([2]; human, 48 h)?
A: 100 µM

Q: And the “MEC, ROS mean intensity” value ([2]; human, 48 h)?
A: 316 µM

Q: What about the “MEC, nuclear changes area (NC, A)” value ([2]; human, 48 h) of the same compound?
A: 316 µM

Q: What about the “MEC, steatosis droplet count (S, C)” value ([2]; human, 48 h) of the same compound?
A: 316 µM

Q: What about the “MEC, steatosis mean intensity (S, MI)” value ([2]; human, 48 h) of the same compound?
A: 1000 µM

Q: What about the “MEC, viability cell count (V, CC)” value ([2]; human, 48 h) of the same compound?
A: 1000 µM

Q: What about the “Minimal effective concentration (MEC), viability cell count (V, CC)” value (“Minimal effective concentration (MEC)” for short) ([2]; human, 48 h) of the same compound?
A: 1000 µM

Q: And the “IC50/EC50 Nucleus Area” value ([3]; hiPS-HEP, fixed assay, 48 h)?
A: 105 µM

Q: What about the “IC50/EC50 Nucleus Cell count” value ([3]; hiPS-HEP, fixed assay, 48 h) of the same compound?
A: 432 µM

Q: What about the “IC50/EC50 Nucleus MI” value ([3]; hiPS-HEP, fixed assay, 48 h) of the same compound?
A: 211 µM

Q: And the “IC50/EC50 Steatosis Area” value ([3]; hiPS-HEP, fixed assay, 48 h)?
A: 213 µM

Q: And the “IC50/EC50 Steatosis Count” value ([3]; hiPS-HEP, fixed assay, 48 h)?
A: 184 µM

Q: And the “IC50/EC50 Steatosis MI” value ([3]; hiPS-HEP, fixed assay, 48 h)?
A: 418 µM

Q: What about the “IC50/EC50 Nucleus Area” value ([3]; hiPS-HEP, live assay, 48 h) of the same compound?
A: 211 µM

Q: What about the “IC50/EC50 Nucleus Cell count” value ([3]; hiPS-HEP, live assay, 48 h) of the same compound?
A: 243 µM

Q: What about the “IC50/EC50 Nucleus MI” value ([3]; hiPS-HEP, live assay, 48 h) of the same compound?
A: 380 µM

Q: What about the “IC50/EC50 ROS MI” value ([3]; hiPS-HEP, live assay, 48 h) of the same compound?
A: 160 µM

Q: What about the “Increase of mean nuclear intensity” value [3, 4] of the same compound?
A: 12%

Q: What about the “Increase of nuclear area” value [3, 4] of the same compound?
A: 14%

Q: What about the “Increase of PMP compared to the control” value ([3]; hiPSC derived hepatocytes, at the highest concentration) of the same compound?
A: 8%

Q: And the “Significant changes on MMP” value (HepG2 cells; HepG2)?
A: not detected

Q: What about the “IC50/EC50 Nucleus Area” value (HepG2 cells; HepG2, fixed assay, 48 h) of the same compound?
A: 464 µM

Q: And the “IC50/EC50 Nucleus Cell count” value (HepG2 cells; HepG2, fixed assay, 48 h)?
A: 558 µM

Q: What about the “IC50/EC50 Nucleus MI” value (HepG2 cells; HepG2, fixed assay, 48 h) of the same compound?
A: 348 µM

Q: What about the “IC50/EC50 Steatosis Area” value (HepG2 cells; HepG2, fixed assay, 48 h) of the same compound?
A: 287 µM

Q: What about the “IC50/EC50 Steatosis Count” value (HepG2 cells; HepG2, fixed assay, 48 h) of the same compound?
A: 36.3 µM

Q: And the “IC50/EC50 Steatosis MI” value (HepG2 cells; HepG2, fixed assay, 48 h)?
A: 361 µM

Q: What about the “IC50/EC50 MMP MI” value (HepG2 cells; HepG2, live assay, 48 h) of the same compound?
A: 265 µM

Q: What about the “IC50/EC50 Nucleus Area” value (HepG2 cells; HepG2, live assay, 48 h) of the same compound?
A: 336 µM

Q: And the “IC50/EC50 Nucleus Cell count” value (HepG2 cells; HepG2, live assay, 48 h)?
A: 836 µM

Q: And the “IC50/EC50 Nucleus MI” value (HepG2 cells; HepG2, live assay, 48 h)?
A: 959 µM

Q: And the “IC50/EC50 ROS MI” value (HepG2 cells; HepG2, live assay, 48 h)?
A: 1149 µM

Q: And the “MEC, PMP mean intensity” value (HepG2 cells; human, 48 h)?
A: 1000 µM

Q: And the “MEC, ROS mean intensity” value (HepG2 cells; human, 48 h)?
A: 1000 µM

Q: What about the “MEC, nuclear changes area (NC, A)” value (HepG2 cells; human, 48 h) of the same compound?
A: 316 µM

Q: What about the “MEC, phospholipidosis mean intensity (PL, MI)” value (HepG2 cells; human, 48 h) of the same compound?
A: 100 µM

Q: And the “MEC, steatosis droplet count (S, C)” value (HepG2 cells; human, 48 h)?
A: 100 µM

Q: And the “MEC, steatosis mean intensity (S, MI)” value (HepG2 cells; human, 48 h)?
A: 100 µM

Q: And the “Minimal effective concentration (MEC)” value (HepG2 cells; human, 48 h)?
A: 316 µM

Q: Which “Concentration below which no cytotoxic effects were displayed” value ([2]; human, 48 h) does the source give for CCCCc1oc2ccccc2c1C(=O)c1cc(I)c(OCCN(CC)CC)c(I)c1 [Amiodarone, amiodarone hydrochloride] here?
A: 12.5 µM

Q: And the “Detection of phospholipid accumulation / phospholipidosis” value (HepG2 cells; HepG2)?
A: false negative prediction

Q: What about the “Category based on degree of injury” value (HepG2 cells; HepG2, […] for amiodarone, 100 μM for the others) of the same compound?
A: severely

Q: And the “Severity (sum of individual scores, degree of injury)” value (HepG2 cells; HepG2, at 100 µM (Amiodarone HCL at […]))?
A: 20

Q: What about the “IC50/EC50 Nucleus Area” value (HepG2 cells; HepG2, fixed assay, 48 h) of the same compound?
A: 39.5 µM

Q: And the “IC50/EC50 Nucleus Cell count” value (HepG2 cells; HepG2, fixed assay, 48 h)?
A: 7.6 µM

Q: What about the “IC50/EC50 Nucleus MI” value (HepG2 cells; HepG2, fixed assay, 48 h) of the same compound?
A: 140 µM

Q: What about the “IC50/EC50 Phospholipidosis Area” value (HepG2 cells; HepG2, fixed assay, 48 h) of the same compound?
A: 7.3 µM

Q: And the “IC50/EC50 Phospholipidosis Count” value (HepG2 cells; HepG2, fixed assay, 48 h)?
A: 8.9 µM

Q: And the “IC50/EC50 Phospholipidosis MI” value (HepG2 cells; HepG2, fixed assay, 48 h)?
A: 35.6 µM

Q: What about the “IC50/EC50 Steatosis Area” value (HepG2 cells; HepG2, fixed assay, 48 h) of the same compound?
A: 30.6 µM

Q: What about the “IC50/EC50 Steatosis Count” value (HepG2 cells; HepG2, fixed assay, 48 h) of the same compound?
A: 19.5 µM

Q: What about the “IC50/EC50 Steatosis MI” value (HepG2 cells; HepG2, fixed assay, 48 h) of the same compound?
A: 23.6 µM

Q: What about the “MEC, steatosis area (S, A)” value (HepG2 cells; [5]) of the same compound?
A: 125 µM

Q: What about the “MEC, steatosis mean intensity (S, MI)” value (HepG2 cells; [5]) of the same compound?
A: 39.5 µM

Q: And the “Minimal effective concentration (MEC)” value (HepG2 cells; [5])?
A: 4 µM

Q: And the “Degree of injury score, Neutral Lipids Area” value (HepG2 cells; [6])?
A: 0 (variation lower than 25%)

Q: And the “Degree of injury score, Neutral Lipids C” value (HepG2 cells; [6])?
A: 2 (variation 150-300%)

Q: And the “Degree of injury score, Neutral Lipids MI” value (HepG2 cells; [6])?
A: 3 (variation >300%)

Q: And the “Degree of injury score, Nucleus Area” value (HepG2 cells; [6])?
A: 1 (variation ± 20-40%)

Q: What about the “Degree of injury score, Nucleus CC” value (HepG2 cells; [6]) of the same compound?
A: 3 (variation ± 60-100%)

Q: What about the “Degree of injury score, Nucleus MI” value (HepG2 cells; [6]) of the same compound?
A: 1 (variation ± 20-40%)

Q: And the “Degree of injury score, Phospholipids Area” value (HepG2 cells; [6])?
A: 1 (variation 25-150%)

Q: What about the “Degree of injury score, Phospholipids C” value (HepG2 cells; [6]) of the same compound?
A: 0 (variation lower than 25%)

Q: What about the “Degree of injury score, Phospholipids MI” value (HepG2 cells; [6]) of the same compound?
A: 0 (variation lower than 25%)

Q: And the “Degree of injury (category)” value (HepG2 cells; HepG2, isomolar concentration of 100 µM ([…] for amiodarone))?
A: Severe hepatotoxicity (severely toxic (≥15))

Q: And the “IC50/EC50 MMP MI” value (HepG2 cells; HepG2, live assay, 48 h)?
A: 345 µM

Q: And the “IC50/EC50 Nucleus Area” value (HepG2 cells; HepG2, live assay, 48 h)?
A: 29.1 µM

Q: What about the “IC50/EC50 Nucleus Cell count” value (HepG2 cells; HepG2, live assay, 48 h) of the same compound?
A: 7.2 µM

Q: And the “IC50/EC50 Nucleus MI” value (HepG2 cells; HepG2, live assay, 48 h)?
A: 25.0 µM

Q: What about the “IC50/EC50 PMP MI” value (HepG2 cells; HepG2, live assay, 48 h) of the same compound?
A: 147 µM

Q: And the “IC50/EC50 ROS MI” value (HepG2 cells; HepG2, live assay, 48 h)?
A: 4.6 µM

Q: And the “MEC, MMP mean intensity” value (HepG2 cells; [7])?
A: 12.5 µM

Q: And the “MEC, ROS mean intensity” value (HepG2 cells; [7])?
A: 12.5 µM

Q: And the “MEC, viability cell count (V, CC)” value (HepG2 cells; [7])?
A: 12.5 µM

Q: And the “Degree of injury score, MMP MI” value (HepG2 cells; [8])?
A: 1 (variation ± 20-40%)

Q: And the “Degree of injury score, Nucleus Area” value (HepG2 cells; [8])?
A: 1 (variation ± 20-40%)

Q: And the “Degree of injury score, Nucleus CC” value (HepG2 cells; [8])?
A: 3 (variation ± 60-100%)

Q: And the “Degree of injury score, Nucleus MI” value (HepG2 cells; [8])?
A: 2 (variation ± 40-60%)

Q: And the “Degree of injury score, PMP MI” value (HepG2 cells; [8])?
A: 1 (variation ± 20-40%)

Q: What about the “Degree of injury score, ROS MI” value (HepG2 cells; [8]) of the same compound?
A: 1 (variation ± 20-40%)
